Measurements as given in publication PMC10893631, “Receptor-based pharmacophore modeling, molecular docking, synthesis and biological evaluation of novel VEGFR-2, FGFR-1, and BRAF multi-kinase inhibitors” (BMC Chemistry, 2024).

Tests used:
Experiment in all cases: NCI SRB growth inhibition (single dose 10 µM / five-dose)
Format in all cases: cell-based, human
[1] = test system: MALME-3 M; conditions: Homo sapiens; for inhibition at 10 µM: MALME-3 M (Melanoma), read-out: GI%
Outline: (§1)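 Percent growth relative to untreated control and time-zero cell mass, determined by SRB. Five drug levels (10-fold or half-log steps) plus control; time-zero plates fixed 24 h after seeding.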

[2] = test system: HCC-2998; conditions: Homo sapiens; for inhibition at 10 µM: HCC-2998 (Colon cancer), read-out: GI%
Outline: as §1

[3] = test system: PC-3; conditions: Homo sapiens; for inhibition at 10 µM: PC-3 (Prostate cancer), read-out: GI%
Outline: as §1

[4] = test system: COLO 205; conditions: Homo sapiens; for inhibition at 10 µM: COLO 205 (Colon cancer), read-out: GI%
Outline: as §1

[5] = test system: T-47D; conditions: Homo sapiens, T47D; for inhibition at 10 µM: T-47D (Breast cancer), read-out: GI%
Outline: as §1

[6] = test system: SK-MEL-28; conditions: Homo sapiens; for inhibition at 10 µM: SK-MEL-28 (Melanoma), read-out: GI%
Outline: as §1

[7] = test system: TK-10; conditions: Homo sapiens; for inhibition at 10 µM: TK-10 (Renal cancer), read-out: GI%
Outline: as §1

[8] = test system: K-562; conditions: Homo sapiens, K562; for inhibition at 10 µM: K-562 (Leukemia), read-out: GI%
Outline: as §1

[9] = test system: NCI-H460; conditions: Homo sapiens; for inhibition at 10 µM: NCI-H460 (Non-small cell lung cancer), read-out: GI%
Outline: as §1

[10] = test system: OVCAR-3; conditions: Homo sapiens; for inhibition at 10 µM: OVCAR-3 (Ovarian cancer), read-out: GI%
Outline: as §1

[11] = test system: OVCAR-8; conditions: Homo sapiens; for inhibition at 10 µM: OVCAR-8 (Ovarian cancer), read-out: GI%
Outline: as §1

[12] = test system: SK-MEL-2; conditions: Homo sapiens; for inhibition at 10 µM: SK-MEL-2 (Melanoma), read-out: GI%
Outline: as §1

[13] = test system: IGROV1; conditions: Homo sapiens, IGROV-1; for inhibition at 10 µM: IGROV1 (Ovarian cancer), read-out: GI%
Outline: as §1

[14] = test system: UACC-257; conditions: Homo sapiens; for inhibition at 10 µM: UACC-257 (Melanoma), read-out: GI%
Outline: as §1

[15] = test system: MCF7; conditions: Homo sapiens; for inhibition at 10 µM: MCF7 (Breast cancer), read-out: GI%
Outline: as §1

[16] = test system: A549/ATCC; conditions: Homo sapiens; for inhibition at 10 µM: A549/ATCC (Non-small cell lung cancer), read-out: GI%
Outline: as §1

[17] = test system: OVCAR-5; conditions: Homo sapiens; for inhibition at 10 µM: OVCAR-5 (Ovarian cancer), read-out: GI%
Outline: as §1

[18] = test system: SW-620; conditions: Homo sapiens; for inhibition at 10 µM: SW-620 (Colon cancer), read-out: GI%
Outline: as §1

[19] = test system: NCI-H23; conditions: Homo sapiens; for inhibition at 10 µM: NCI-H23 (Non-small cell lung cancer), read-out: GI%
Outline: as §1

[20] = test system: RPMI-8226; conditions: Homo sapiens; for inhibition at 10 µM: RPMI-8226 (Leukemia), read-out: GI%
Outline: as §1

[21] = test system: SF-295; conditions: Homo sapiens; for inhibition at 10 µM: SF-295 (CNS cancer), read-out: GI%
Outline: as §1

[22] = test system: UACC-62; conditions: Homo sapiens; for inhibition at 10 µM: UACC-62 (Melanoma), read-out: GI%
Outline: as §1

[23] = test system: A498; conditions: Homo sapiens; for inhibition at 10 µM: A498 (Renal cancer), read-out: GI%
Outline: as §1

[24] = test system: CCRF-CEM; conditions: Homo sapiens; for inhibition at 10 µM: CCRF-CEM (Leukemia), read-out: GI%
Outline: as §1

[25] = test system: HS 578 T; conditions: Homo sapiens; for inhibition at 10 µM: HS 578 T (Breast cancer), read-out: GI%
Outline: as §1

[26] = test system: EKVX; conditions: Homo sapiens; for inhibition at 10 µM: EKVX (Non-small cell lung cancer), read-out: GI%
Outline: as §1

COc1cccc(C=NNC(=O)c2ccc3[nH]c(-c4ccccc4)nc3c2)c1 [8c, N'-(3-Methoxybenzylidene)-2-phenyl-1H-benzo[d]imidazole-5-carbohydrazide]
inhibition at 10 µM [1]: 47.1%
inhibition at 10 µM [2]: < 5%
inhibition at 10 µM [3]: 24.6%
inhibition at 10 µM [4]: 32.6%
inhibition at 10 µM [5]: 69.1%
inhibition at 10 µM [6]: 20.4%
inhibition at 10 µM [7]: < 5%
inhibition at 10 µM [8]: 41.7%
inhibition at 10 µM [9]: 13.1%
inhibition at 10 µM [10]: 7.38%
inhibition at 10 µM [11]: 24.5%
inhibition at 10 µM [12]: 19.5%
inhibition at 10 µM [13]: 10.1%
inhibition at 10 µM [14]: 14.6%
inhibition at 10 µM [15]: 51%
inhibition at 10 µM [16]: 20.1%
inhibition at 10 µM [17]: < 5%
inhibition at 10 µM [18]: < 5%
inhibition at 10 µM [19]: 9.68%
inhibition at 10 µM [20]: 81.6%
inhibition at 10 µM [21]: 18.5%
inhibition at 10 µM [22]: 14.7%
inhibition at 10 µM [23]: < 5%
inhibition at 10 µM [24]: 44.5%
inhibition at 10 µM [25]: 20%
inhibition at 10 µM [26]: 41.8%

COc1cccc(C=NNC(=O)c2ccc3[nH]c(-c4ccccc4)nc3c2)c1O [8d, N'-(2-hydroxy-3-methoxybenzylidene)-2-phenyl-1H-benzo[d]imidazole-5-carbohydrazide]
inhibition at 10 µM [1]: > 100%
GI50 ([1]; MALME-3 M, Melanoma, five-dose): 1.37 µM
inhibition at 10 µM [2]: 98.5%
GI50 ([2]; HCC-2998, Colon cancer, five-dose): 1.79 µM
inhibition at 10 µM [3]: 82.2%
GI50 ([3]; PC-3, Prostate cancer, five-dose): 2.71 µM
GI50 ([4]; COLO 205, Colon cancer, five-dose): 2.34 µM
GI50 ([5]; T-47D, Breast cancer, five-dose): 1.93 µM
inhibition at 10 µM [6]: 96.2%
GI50 ([6]; SK-MEL-28, Melanoma, five-dose): 1.78 µM
inhibition at 10 µM [7]: 50.6%
GI50 ([7]; TK-10, Renal cancer, five-dose): 4.78 µM
inhibition at 10 µM [8]: 60.9%
GI50 ([8]; K-562, Leukemia, five-dose): 2.04 µM
inhibition at 10 µM [9]: 86.4%
GI50 ([9]; NCI-H460, Non-small cell lung cancer, five-dose): 2.63 µM
inhibition at 10 µM [10]: > 100%
GI50 ([10]; OVCAR-3, Ovarian cancer, five-dose): 0.42 µM
inhibition at 10 µM [11]: > 100%
GI50 ([11]; OVCAR-8, Ovarian cancer, five-dose): 1.62 µM
inhibition at 10 µM [12]: 34.3%
GI50 ([12]; SK-MEL-2, Melanoma, five-dose): 1.64 µM
inhibition at 10 µM [13]: 79.9%
GI50 ([13]; IGROV1, Ovarian cancer, five-dose): 2.34 µM
inhibition at 10 µM [14]: > 100%
GI50 ([14]; UACC-257, Melanoma, five-dose): 2.34 µM
inhibition at 10 µM [15]: 98.1%
GI50 ([15]; MCF7, Breast cancer, five-dose): 1.06 µM
inhibition at 10 µM [16]: 79.8%
GI50 ([16]; A549/ATCC, Non-small cell lung cancer, five-dose): 3.39 µM
inhibition at 10 µM [17]: 63.2%
GI50 ([17]; OVCAR-5, Ovarian cancer, five-dose): 2.77 µM
inhibition at 10 µM [18]: 70.8%
GI50 ([18]; SW-620, Colon cancer, five-dose): 3.77 µM
inhibition at 10 µM [19]: > 100%
GI50 ([19]; NCI-H23, Non-small cell lung cancer, five-dose): 1.87 µM
inhibition at 10 µM [20]: 98.5%
GI50 ([20]; RPMI-8226, Leukemia, five-dose): 1.86 µM
inhibition at 10 µM [21]: 83.2%
GI50 ([21]; SF-295, CNS cancer, five-dose): 2.93 µM
inhibition at 10 µM [22]: 99.5%
GI50 ([22]; UACC-62, Melanoma, five-dose): 1.22 µM
inhibition at 10 µM [23]: < 5%
GI50 ([23]; A498, Renal cancer, five-dose): 36.6 µM
inhibition at 10 µM [24]: > 100%
GI50 ([24]; CCRF-CEM, Leukemia, five-dose): 0.3 µM
inhibition at 10 µM [25]: 92.9%
GI50 ([25]; HS 578 T, Breast cancer, five-dose): 0.62 µM
inhibition at 10 µM [26]: 87.6%
GI50 ([26]; EKVX, Non-small cell lung cancer, five-dose): 1.86 µM

COc1ccc(C=NNC(=O)c2ccc3[nH]c(-c4ccccc4)nc3c2)cc1O [8e, N'-(3-Hydroxy-4-methoxybenzylidene)-2-phenyl-1H-benzo[d]imidazole-5-carbohydrazide]
inhibition at 10 µM [1]: 78.4%
inhibition at 10 µM [2]: < 5%
inhibition at 10 µM [3]: 11.5%
inhibition at 10 µM [4]: 35.4%
inhibition at 10 µM [5]: 39.3%
inhibition at 10 µM [6]: 28.9%
inhibition at 10 µM [7]: < 5%
inhibition at 10 µM [8]: 26.2%
inhibition at 10 µM [9]: < 5%
inhibition at 10 µM [10]: 7.25%
inhibition at 10 µM [11]: 25.2%
inhibition at 10 µM [12]: 8.51%
inhibition at 10 µM [13]: 22%
inhibition at 10 µM [14]: 13.8%
inhibition at 10 µM [15]: 70.5%
inhibition at 10 µM [16]: < 5%
inhibition at 10 µM [17]: < 5%
inhibition at 10 µM [18]: < 5%
inhibition at 10 µM [19]: < 5%
inhibition at 10 µM [20]: 23.4%
inhibition at 10 µM [21]: 10.9%
inhibition at 10 µM [22]: 18.7%
inhibition at 10 µM [23]: < 5%
inhibition at 10 µM [24]: 35.9%
inhibition at 10 µM [25]: 6.89%
inhibition at 10 µM [26]: 19.2%
